Laboratory results reported in patent US10093713B2, “GIP-GLP-1 dual agonist compounds and methods” (priority 2013, dated 2018).
Read-outs that look alike come from different tables or passages of the source. *1 amine or outer side, *2 acyl side, *3 side chain or, on linkers, in order; H or OH if unused. Where a SMILES comes first, the peptide text is derived from it. Side-chain parts run from the residue outwards. [ ]: non-standard residue; d: D form. The star is where a group is joined. C18 diacid = O=C(O)CCCCCCCCCCCCCCCCC(=O)*; γGlu = O=C(O)[C@H](CCC(=O)[*:2])N[*:1]; AEEA = NCCOCCOCC(=O)O; Aib = CC(C)(N)C(=O)O

Columns and labels:
[1] = target: T1, human GIP R (Homo sapiens, UniProt P48546); assay: Human GIP receptor (GIP R) activity assay, cAMP induction (AlphaScreen) in HEK293 cells; format: cell-based
T1 construct: expressed in transfected cells
T1 sequence (P48546 22-466): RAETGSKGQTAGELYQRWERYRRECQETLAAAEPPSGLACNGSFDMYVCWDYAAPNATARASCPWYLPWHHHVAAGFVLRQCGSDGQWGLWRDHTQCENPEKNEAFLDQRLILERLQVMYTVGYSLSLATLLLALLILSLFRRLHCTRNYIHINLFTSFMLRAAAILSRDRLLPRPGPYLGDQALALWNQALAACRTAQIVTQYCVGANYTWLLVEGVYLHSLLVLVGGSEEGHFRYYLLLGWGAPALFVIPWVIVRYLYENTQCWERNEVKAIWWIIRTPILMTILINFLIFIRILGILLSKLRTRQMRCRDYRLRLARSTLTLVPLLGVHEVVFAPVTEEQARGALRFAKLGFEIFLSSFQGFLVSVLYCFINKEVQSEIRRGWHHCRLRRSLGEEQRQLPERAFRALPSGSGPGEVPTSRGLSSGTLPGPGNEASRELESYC
Procedure, shortened: (§1)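 Stable HEK293 clones expressing human GIP R or GLP-1 R, seeded 1 day before; cells washed in Tyrode's buffer (10 mM HEPES, pH 7.4), stimulated, then lysed. cAMP measured by AlphaScreen bead competition (1 h, room temperature, dark). EC50 = concentration giving half-maximal cAMP elevation, from curves of absolute cAMP (nM) vs log concentration.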

[2] = target: T2, human GLP-1 R (Homo sapiens, UniProt P43220); assay: Human GLP-1 receptor (GLP-1 R) activity assay, cAMP induction (AlphaScreen) in HEK293 cells; format: cell-based
T2 construct: expressed in transfected cells
T2 sequence (P43220 24-463): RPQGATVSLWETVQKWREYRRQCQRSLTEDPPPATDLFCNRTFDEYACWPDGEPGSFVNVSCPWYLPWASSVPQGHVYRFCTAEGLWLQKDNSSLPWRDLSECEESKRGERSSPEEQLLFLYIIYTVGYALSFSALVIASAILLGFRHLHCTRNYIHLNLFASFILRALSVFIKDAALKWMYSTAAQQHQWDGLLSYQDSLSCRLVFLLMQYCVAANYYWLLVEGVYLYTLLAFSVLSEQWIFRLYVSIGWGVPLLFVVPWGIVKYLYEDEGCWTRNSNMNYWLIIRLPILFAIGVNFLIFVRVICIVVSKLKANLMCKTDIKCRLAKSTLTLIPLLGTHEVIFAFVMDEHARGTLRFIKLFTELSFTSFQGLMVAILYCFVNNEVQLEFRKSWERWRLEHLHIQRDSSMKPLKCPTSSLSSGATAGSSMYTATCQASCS
Procedure, shortened: as §1

[3] = Table 2a, secondary assay study, read-out: hGIP-R cAMP EC50 average value
[4] = Table 2a, secondary assay study, read-out: hGLP1-R cAMP EC50 average value
[5] = Table 2, HEK293 cells expressing human GIP R, read-out: hGIP-R cAMP EC50 average value
[6] = Table 3, most comprehensive data, read-out: hGIP-R cAMP EC50 average value
[7] = Table 2, HEK293 cells expressing human GLP-1 R, read-out: hGLP1-R cAMP EC50 average value

SMILES	EC50 [1, 5] [nM]	EC50 [1, 6] [nM]	EC50 [2, 7] [nM]	other results
CC[C@H](C)[C@H](NC(=O)[C@H](CO)NC(=O)[C@H](Cc1ccc(O)cc1)NC(=O)[C@H](CC(=O)O)NC(=O)[C@H](CO)NC(=O)[C@@H](NC(=O)[C@H](Cc1ccccc1)NC(=O)[C@@H](NC(=O)CNC(=O)[C@H](CCC(=O)O)NC(=O)C(C)(C)NC(=O)[C@@H](N)Cc1ccc(O)cc1)[C@@H](C)O)[C@@H](C)O)C(=O)N[C@@H](Cc1ccc(O)cc1)C(=O)N[C@@H](CC(C)C)C(=O)N[C@@H](CCC(=O)O)C(=O)N[C@@H](CCCCN)C(=O)N[C@@H](CCCCNC(=O)COCCOCCNC(=O)COCCOCCNC(=O)CC[C@H](NC(=O)CCCCCCCCCCCCCCCCC(=O)O)C(=O)O)C(=O)N[C@@H](C)C(=O)N[C@@H](CCC(N)=O)C(=O)N[C@@H](CCCNC(=N)N)C(=O)N[C@@H](C)C(=O)N[C@@H](Cc1ccccc1)C(=O)N[C@H](C(=O)N[C@@H](CCC(=O)O)C(=O)N[C@@H](Cc1c[nH]c2ccccc12)C(=O)N[C@@H](CC(C)C)C(=O)N[C@@H](CC(C)C)C(=O)N[C@@H](CCCNC(=N)N)C(=O)N[C@@H](C)C(N)=O)C(C)C [Compound 19] (H-Y[Aib]EGTFTSDYSIYLEKK([AEEA-AEEA-γGlu-C18 diacid])AQRAFVEWLLRA-NH2)	–	–	–	EC50 [1, 3]: 0.014 nM; EC50 [2, 4]: 0.022 nM
CC[C@H](C)[C@H](NC(=O)[C@H](CO)NC(=O)[C@H](CC(C)C)NC(=O)[C@H](CC(=O)O)NC(=O)[C@H](CO)NC(=O)[C@@H](NC(=O)[C@H](Cc1ccccc1)NC(=O)[C@@H](NC(=O)CNC(=O)[C@H](CCC(=O)O)NC(=O)C(C)(C)NC(=O)[C@@H](N)Cc1ccc(O)cc1)[C@@H](C)O)[C@@H](C)O)C(=O)N[C@@H](C)C(=O)N[C@@H](CC(C)C)C(=O)N[C@@H](CC(=O)O)C(=O)N[C@@H](CCCCN)C(=O)N[C@@H](CCCCNC(=O)COCCOCCNC(=O)COCCOCCNC(=O)CC[C@H](NC(=O)CCCCCCCCCCCCCCCCC(=O)O)C(=O)O)C(=O)N[C@@H](C)C(=O)N[C@@H](CCC(N)=O)C(=O)N[C@@H](CCCNC(=N)N)C(=O)N[C@@H](C)C(=O)N[C@@H](Cc1ccccc1)C(=O)N[C@H](C(=O)N[C@@H](CC(N)=O)C(=O)N[C@@H](Cc1c[nH]c2ccccc12)C(=O)N[C@@H](CC(C)C)C(=O)N[C@H](C(=O)N[C@@H](C)C(=O)NC(C)(C)C(=O)N[C@@H](CCCCN)C(N)=O)C(C)C)C(C)C [Compound 20]	–	–	–	EC50 ([1]; hGIP-R cAMP EC50 average value, Table 2, HEK293 cells expressing human GIP R): 0.0097 nM; EC50 [2]: 0.011 nM
CC[C@H](C)[C@H](NC(=O)[C@H](CO)NC(=O)[C@H](CC(C)C)NC(=O)[C@H](CC(=O)O)NC(=O)[C@H](CO)NC(=O)[C@@H](NC(=O)[C@H](Cc1ccccc1)NC(=O)[C@@H](NC(=O)CNC(=O)[C@H](CCC(=O)O)NC(=O)C(C)(C)NC(=O)[C@@H](N)Cc1ccc(O)cc1)[C@@H](C)O)[C@@H](C)O)C(=O)N[C@@H](C)C(=O)N[C@@H](CC(C)C)C(=O)N[C@@H](CC(=O)O)C(=O)N[C@@H](CCCCN)C(=O)N[C@@H](CCCCNC(=O)COCCOCCNC(=O)COCCOCCNC(=O)CC[C@H](NC(=O)CCCCCCCCCCCCCCCCC(=O)O)C(=O)O)C(=O)N[C@@H](C)C(=O)N[C@@H](CCC(N)=O)C(=O)N[C@@H](CCCNC(=N)N)C(=O)N[C@@H](C)C(=O)N[C@@H](Cc1ccccc1)C(=O)N[C@H](C(=O)N[C@@H](CC(N)=O)C(=O)N[C@@H](Cc1c[nH]c2ccccc12)C(=O)N[C@@H](CC(C)C)C(=O)N[C@H](C(=O)N[C@@H](C)C(=O)NC(C)(C)C(=O)N[C@@H](CCCCN)C(N)=O)C(C)C)C(C)C [Compound 21]	–	–	–	EC50 [1, 3]: 0.01 nM; EC50 [2, 4]: 0.01 nM
CC[C@H](C)[C@H](NC(=O)[C@H](CO)NC(=O)[C@H](Cc1ccc(O)cc1)NC(=O)[C@H](CC(=O)O)NC(=O)[C@H](CO)NC(=O)[C@@H](NC(=O)[C@H](Cc1ccccc1)NC(=O)[C@@H](NC(=O)CNC(=O)[C@H](CCC(=O)O)NC(=O)C(C)(C)NC(=O)[C@@H](N)Cc1ccc(O)cc1)[C@@H](C)O)[C@@H](C)O)C(=O)N[C@@H](C)C(=O)N[C@@H](CC(C)C)C(=O)N[C@@H](CC(=O)O)C(=O)N[C@@H](CCCCN)C(=O)N[C@@H](CCCCNC(=O)COCCOCCNC(=O)COCCOCCNC(=O)CC[C@H](NC(=O)CCCCCCCCCCCCCCCCC(=O)O)C(=O)O)C(=O)N[C@@H](C)C(=O)N[C@@H](CCC(N)=O)C(=O)N[C@@H](CCCNC(=N)N)C(=O)N[C@@H](C)C(=O)N[C@@H](Cc1ccccc1)C(=O)N[C@H](C(=O)N[C@@H](CCC(=O)O)C(=O)N[C@@H](Cc1c[nH]c2ccccc12)C(=O)N[C@@H](CC(C)C)C(=O)N[C@H](C(=O)N[C@@H](C)C(=O)NC(C)(C)C(=O)N[C@@H](CCCCN)C(N)=O)C(C)C)C(C)C [Compound 21] (H-Y[Aib]EGTFTSDYSIALDKK([AEEA-AEEA-γGlu-C18 diacid])AQRAFVEWLVA[Aib]K-NH2)	0.0068	0.007	0.011	–
CC[C@H](C)[C@H](NC(=O)[C@H](CO)NC(=O)[C@H](Cc1ccc(O)cc1)NC(=O)[C@H](CC(=O)O)NC(=O)[C@H](CO)NC(=O)[C@@H](NC(=O)[C@H](Cc1ccccc1)NC(=O)[C@@H](NC(=O)CNC(=O)[C@H](CCC(=O)O)NC(=O)C(C)(C)NC(=O)[C@@H](N)Cc1ccc(O)cc1)[C@@H](C)O)[C@@H](C)O)C(=O)N[C@@H](C)C(=O)N[C@@H](CC(C)C)C(=O)N[C@@H](CCC(=O)O)C(=O)N[C@@H](CCCCN)C(=O)N[C@@H](CCCCNC(=O)COCCOCCNC(=O)COCCOCCNC(=O)CC[C@H](NC(=O)CCCCCCCCCCCCCCCCC(=O)O)C(=O)O)C(=O)N[C@@H](C)C(=O)N[C@@H](CCC(N)=O)C(=O)N[C@@H](CCCNC(=N)N)C(=O)N[C@@H](C)C(=O)N[C@@H](Cc1ccccc1)C(=O)N[C@H](C(=O)N[C@@H](CCC(=O)O)C(=O)N[C@@H](Cc1c[nH]c2ccccc12)C(=O)N[C@@H](CC(C)C)C(=O)N[C@@H](CCC(=O)O)C(=O)N[C@@H](C)C(=O)N[C@@H](CCC(N)=O)C(=O)NCC(=O)N1CCC[C@H]1C(=O)N[C@@H](CO)C(=O)N[C@@H](CO)C(=O)NCC(=O)N[C@@H](C)C(=O)N1CCC[C@H]1C(=O)N1CCC[C@H]1C(=O)N1CCC[C@H]1C(=O)N[C@@H](CO)C(N)=O)C(C)C [Compound 22] (H-Y[Aib]EGTFTSDYSIALEKK([AEEA-AEEA-γGlu-C18 diacid])AQRAFVEWLEAQGPSSGAPPPS-NH2)	0.06	0.06	0.061	EC50 ([2]; Table 3, most comprehensive data, read-out: hGLP-1-R cAMP EC50 average value): 0.061 nM
CC[C@H](C)[C@H](NC(=O)[C@H](CO)NC(=O)[C@H](Cc1ccc(O)cc1)NC(=O)[C@H](CC(=O)O)NC(=O)[C@H](CO)NC(=O)[C@@H](NC(=O)[C@H](Cc1ccccc1)NC(=O)[C@@H](NC(=O)CNC(=O)[C@H](CCC(=O)O)NC(=O)C(C)(C)NC(=O)[C@@H](N)Cc1ccc(O)cc1)[C@@H](C)O)[C@@H](C)O)C(=O)N[C@@H](C)C(=O)N[C@@H](CC(C)C)C(=O)N[C@@H](CCC(=O)O)C(=O)N[C@@H](CCCCN)C(=O)N[C@@H](CCCCNC(=O)COCCOCCNC(=O)COCCOCCNC(=O)CC[C@H](NC(=O)CCCCCCCCCCCCCCCCC(=O)O)C(=O)O)C(=O)N[C@@H](C)C(=O)N[C@@H](CCC(N)=O)C(=O)N[C@@H](CCCNC(=N)N)C(=O)N[C@@H](C)C(=O)N[C@@H](Cc1ccccc1)C(=O)N[C@H](C(=O)N[C@@H](CCC(=O)O)C(=O)N[C@@H](Cc1c[nH]c2ccccc12)C(=O)N[C@@H](CC(C)C)C(=O)N[C@@H](CCC(=O)O)C(=O)N[C@@H](C)C(=O)N[C@@H](CCC(N)=O)C(=O)N[C@@H](CCCCN)C(N)=O)C(C)C [Compound 23] (H-Y[Aib]EGTFTSDYSIALEKK([AEEA-AEEA-γGlu-C18 diacid])AQRAFVEWLEAQK-NH2)	0.2	0.2	0.044	–
CC[C@H](C)[C@H](NC(=O)[C@H](CO)NC(=O)[C@H](CC(C)C)NC(=O)[C@H](CC(=O)O)NC(=O)[C@H](CO)NC(=O)[C@@H](NC(=O)[C@H](Cc1ccccc1)NC(=O)[C@@H](NC(=O)CNC(=O)[C@H](CCC(=O)O)NC(=O)C(C)(C)NC(=O)[C@@H](N)Cc1ccc(O)cc1)[C@@H](C)O)[C@@H](C)O)C(=O)N[C@@H](C)C(=O)N[C@@H](CC(C)C)C(=O)N[C@@H](CCC(=O)O)C(=O)N[C@@H](CCCCN)C(=O)N[C@@H](CCCCNC(=O)COCCOCCNC(=O)COCCOCCNC(=O)CC[C@H](NC(=O)CCCCCCCCCCCCCCCCC(=O)O)C(=O)O)C(=O)N[C@@H](C)C(=O)N[C@@H](CCC(N)=O)C(=O)N[C@@H](CCCNC(=N)N)C(=O)N[C@@H](C)C(=O)N[C@@H](Cc1ccccc1)C(=O)N[C@H](C(=O)N[C@@H](CCC(=O)O)C(=O)N[C@@H](Cc1c[nH]c2ccccc12)C(=O)N[C@@H](CC(C)C)C(=O)N[C@@H](CCC(=O)O)C(=O)N[C@@H](C)C(=O)N[C@@H](CCC(N)=O)C(=O)N[C@@H](CCCCN)C(N)=O)C(C)C [Compound 24] (H-Y[Aib]EGTFTSDLSIALEKK([AEEA-AEEA-γGlu-C18 diacid])AQRAFVEWLEAQK-NH2)	–	0.26	0.011	–
